According to ChEMBL document CHEMBL3244335 (J Med Chem, 1977):

Assays:
[1] = target: Histamine H2 receptor (Cavia porcellus) (UniProt P47747); test: Antagonist at histamine H2 receptor in guinea pig atrium assessed as inhibition of histamine-induced response; details: Cardiac atrium
[2] = target: Histamine H2 receptor (Rattus norvegicus) (UniProt P25102); test: Antagonist at histamine H2 receptor in rat uterus assessed as inhibition of histamine-induced response; type: tissue-based
[3] = Ionization constant, pKa of the imidazole ring of the compound; type: physicochemical
[4] = Octanol-water partition coefficient, log P of the compound at pH 9.2; type: physicochemical
[5] = Solubility of the compound in water at 37 degC; type: physicochemical; details: buffer
[6] = Ionization constant, pKa of the compound; type: physicochemical
[7] = Octanol-water partition coefficient, log P of the compound at 37 degC; type: physicochemical
[8] = Octanol-water partition coefficient, P of the compound at 37 degC

Sequence of Histamine H2 receptor (Rattus norvegicus) (P25102 whole entry): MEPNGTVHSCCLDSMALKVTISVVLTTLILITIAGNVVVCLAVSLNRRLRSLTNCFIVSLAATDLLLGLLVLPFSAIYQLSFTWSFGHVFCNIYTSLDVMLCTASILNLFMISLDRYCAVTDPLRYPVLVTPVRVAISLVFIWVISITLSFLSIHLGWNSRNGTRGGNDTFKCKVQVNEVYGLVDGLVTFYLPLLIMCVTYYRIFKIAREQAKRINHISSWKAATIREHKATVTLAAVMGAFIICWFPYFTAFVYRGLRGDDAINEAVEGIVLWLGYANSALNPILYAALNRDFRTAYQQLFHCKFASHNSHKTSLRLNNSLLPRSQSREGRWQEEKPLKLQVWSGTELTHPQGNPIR
Sequence of Histamine H2 receptor (Cavia porcellus) (P47747 whole entry): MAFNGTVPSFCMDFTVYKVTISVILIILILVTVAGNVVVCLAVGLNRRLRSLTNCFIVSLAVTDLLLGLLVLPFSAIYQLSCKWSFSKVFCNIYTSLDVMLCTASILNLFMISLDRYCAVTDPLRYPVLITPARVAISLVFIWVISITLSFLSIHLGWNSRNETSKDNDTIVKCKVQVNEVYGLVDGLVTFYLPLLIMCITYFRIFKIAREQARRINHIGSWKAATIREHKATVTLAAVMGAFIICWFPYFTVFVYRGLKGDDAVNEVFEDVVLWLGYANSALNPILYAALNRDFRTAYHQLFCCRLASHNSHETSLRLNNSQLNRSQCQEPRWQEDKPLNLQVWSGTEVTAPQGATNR

Row | Structure (SMILES) | Kb [1] | Kb [2] | other results
1 | CN/C(=N/C#N)NCCCCc1nc[nH]c1C | 8.1 µM | 4.9 µM | –
2 | CN/C(=N\C#N)NCCSCc1c[nH]cn1 | 1.4 µM | 1.6 µM | –
3 | C/N=C(\S)NCCSCc1[nH]cnc1C [METIAMIDE] | – | – | pKa [3]: 6.8; logP ([4]; read-out: logP (converted)): 0.505; solubility [5]: 0.32%
4 | CN/C(=N/CCSCc1nc[nH]c1C)NC#N [CIMETIDINE] | – | – | logP [4]: 2.5; solubility [5]: 1.14%
5 | CNC(=S)NCCSCc1[nH]cnc1C | 0.92 µM | 0.75 µM | –
6 | CNC(=O)NCCSCc1[nH]cnc1C | 22 µM | 7.1 µM | –
7 | CN/C(=N\C(N)=O)NCCSCc1nc[nH]c1C | 7.1 µM | 6.9 µM | –
8 | C/N=C(\S)NCCCCc1c[nH]cn1 | 7.8 µM | 6.6 µM | –
9 | N=C(N)N [GUANIDINE] | – | – | pKa [6]: 13.6
10 | N#CNC(=N)N | – | – | pKa [6]: -0.4; logP [7]: -1.16
11 | CNC(=S)NCCCCc1nc[nH]c1C | 8.9 µM | 10.7 µM | –
12 | C/N=C(/NCCSCc1[nH]cnc1C)N[N+](=O)[O-] | 1.4 µM | 1.4 µM | –
13 | CNC(=NC#N)NC | – | – | logP [7]: -0.398
14 | CNC(=S)NCCSCc1c[nH]cn1 | 3.2 µM | 3.2 µM | –
15 | CNC(=N)NCCSCc1nc[nH]c1C | 16 µM | 5.5 µM | –
16 | NC(N)=S [THIOUREA] | – | – | pKa [6]: -1.2; P [8]: 0.09
17 | CNC(=S)NC | – | – | logP [7]: -0.237
18 | CN/C(=N\CCSCc1nc[nH]c1C)NC#N | – | 0.81 µM | –
19 | CN/C(=N\C#N)NCCCCc1c[nH]cn1 | 8.3 µM | 7.1 µM | –
